Read-outs that look alike come from different tables or passages of the source.
Experiments:
WT TREK-1 channels = WT TREK-1 channels (Rattus norvegicus, UniProt Q920B6); conditions: TREK-1 WT
Procedure: Data shown are the mean ± s.e.m and the number (n) of repeats of the representative measurements with similar results is indicated in the figure.
Oocytes were surgically removed from anesthetized adult females, treated with type II collagenase (Sigma-Aldrich/Merck, Germany) and manually defolliculated. 50 nl of a solution containing the K^+ channel specific cRNA was injected into Dumont stage V - VI oocytes and subsequently incubated at 17 °C in a solution containing (mM): 54 NaCl, 30 KCl, 2.4 NaHCO3, 0.82 MgSO4 x 7 H2O, 0.41 CaCl2, 0.33 Ca(NO3)2 x 4 H2O and 7.5 TRIS (pH 7.4 adjusted with NaOH/HCl) for 1–7 days before use. Electrophysiological recordings: Excised patch measurements in inside-out configuration under voltage-clamp conditions were performed at room temperature (22 – 24 °C). Patch pipettes were made from thick-walled borosilicate glass GB 200TF-8P (Science Products, Germany), had resistances of 0.2–0.5 MΩ (tip diameter of 10 - 25 µm) and filled with a pipette solution (in mM): 120 KCl, 10 HEPES and 3.6 CaCl2 (pH 7.0 - 8.5 adjusted with KOH/HCl) or 120 KCl, 10 AMPSO and 3.6 CaCl2 (pH 9.0 - 10.5 adjusted with KOH/HCl). Intracellular bath solutions and compounds were applied to the cytoplasmic side of excised patches for the various K^+ channels via a gravity flow multi-barrel pipette system. Intracellular solution had the following composition (in mM): 120 KCl, 10 HEPES, 2 EGTA and 1 Pyrophosphate (pH adjusted with KOH/HCl). In other intracellular bath solutions, K^+ was replaced by Rb^+ (pH 7.4 adjusted with RbOH/HCl). Currents were recorded with an EPC10 amplifier (HEKA electronics, Germany) and sampled at 10 kHz or higher and filtered with 3 kHz (-3 dB) or higher as appropriate for sampling rate.

[1] = biological target: T1, WT TALK-2 channels (human K2P17.1) (Homo sapiens, UniProt Q96T54); test: Inside-out patch-clamp, ligand activation of channel currents at +40 mV (oocytes)
T1 sequence (Q96T54 1-332): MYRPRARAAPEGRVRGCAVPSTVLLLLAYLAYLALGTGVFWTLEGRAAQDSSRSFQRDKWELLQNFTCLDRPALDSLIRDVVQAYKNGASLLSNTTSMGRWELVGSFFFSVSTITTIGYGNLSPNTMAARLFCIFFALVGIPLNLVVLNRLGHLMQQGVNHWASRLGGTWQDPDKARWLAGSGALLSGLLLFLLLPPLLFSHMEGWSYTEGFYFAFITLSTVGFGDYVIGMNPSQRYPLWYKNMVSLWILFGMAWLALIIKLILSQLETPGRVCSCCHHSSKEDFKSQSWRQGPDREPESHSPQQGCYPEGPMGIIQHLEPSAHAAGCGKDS
Procedure: Oocytes were surgically removed from anesthetized adult females, treated with type II collagenase (Sigma-Aldrich/Merck, Germany) and manually defolliculated. 50 nl of a solution containing the K^+ channel specific cRNA was injected into Dumont stage V - VI oocytes and subsequently incubated at 17 °C in a solution containing (mM): 54 NaCl, 30 KCl, 2.4 NaHCO3, 0.82 MgSO4 x 7 H2O, 0.41 CaCl2, 0.33 Ca(NO3)2 x 4 H2O and 7.5 TRIS (pH 7.4 adjusted with NaOH/HCl) for 1–7 days before use. Electrophysiological recordings: Excised patch measurements in inside-out configuration under voltage-clamp conditions were performed at room temperature (22 – 24 °C). […] Intracellular bath solutions and compounds were applied to the cytoplasmic side of excised patches for the various K^+ channels via a gravity flow multi-barrel pipette system. Intracellular solution had the following composition (in mM): 120 KCl, 10 HEPES, 2 EGTA and 1 Pyrophosphate (pH adjusted with KOH/HCl). In other intracellular bath solutions, K^+ was replaced by Rb^+ (pH 7.4 adjusted with RbOH/HCl). Currents were recorded with an EPC10 amplifier (HEKA electronics, Germany) and sampled at 10 kHz or higher and filtered with 3 kHz (-3 dB) or higher as appropriate for sampling rate.
Recorded currents were analyzed from stable membrane patches at a voltage defined in the respective figure legend or with a voltage protocol as indicated in the respective figure. The fold activation (fold change in (tail) current amplitude) of a ligand (drug or bioactive lipid) was calculated from Eq. 1:1 Fold activationFA=Iactivated/Ibasal where Iactivated represents the stable current level in the presence of a given concentration of a respective ligand and Ibasal the measured current before ligand application. Percentage inhibition or residual currents upon blocker application for a ligand (drug or bioactive lipid) was calculated from stable currents of excised membrane patches using the following Eqs. 2 and 3:2 %inhibition=1−Iinhibited/Ibasal*100 3 Residual current=100−%inhibition where Iinhibited refers to the stable current level recorded in the presence of a given concentration of a drug or bioactive lipid and Ibasal to the measured current before ligand application. The macroscopic half-maximal concentration-inhibition relationship of a ligand was obtained using a Hill-fit for dose-response curves as depicted in Eq. 4:4 %inhibition/activation=Ibase+Imax−Ibase/1+x1/2/x^rate where base and max are the currents in the absence and presence of a respective ligand, x is the concentration of the ligand, x1/2 is the ligand concentration at which the activatory or inhibitory effect is half-maximal, rate is the Hill coefficient.

WT TALK-2 channels = biological target: T2, WT TALK-2 channels (Homo sapiens, UniProt Q96T54); test: Conductance-voltage (G-V) curves from tail currents, V1/2 (intracellular Rb+); type: cell-based; design: expressed in transfected cells; host or cells: Xenopus laevis oocytes (cRNA injection), excised inside-out patches; conditions: for Normalized current: TALK-2 WT + 1 mM 2-APB
T2 sequence (Q96T54 1-332): T1 sequence (Q96T54 1-332)
Excerpt: The voltage-dependent activation mechanism of the SF gate in K2P channels allows to estimate the electrical work (ΔG = zFΔV1/2) required for pore opening by fitting the G–V curve to a Boltzmann equation. […] The open state represents the situation of both gates being simultaneously open but voltage can only exert force on the SF gate that functions as voltage sensor. […] We further tested whether mutations that open the lower gate (L262A and L264A) would affect the extracellular pH sensitivity. […] We further explored this concept of allosteric coupling using the mutations identified in the functional alanine screen of TM2 and TM4. […]
Conductance-voltage (G–V) relationships were determined from tail currents recorded at a holding potential (VH) of −80 mV after 300 ms depolarizing steps as indicated in the respective figure legend. Data were analyzed with a single Boltzmann fit following Eq. 6:6 GV=Imax/1+e^V−V1/2/slope+Ibase where V1/2 represents the voltage of half-maximal activation, s is the slope factor and Imax and Ibase represent the upper and lower asymptotes. Under appropriate experimental conditions, you can use slope to calculate the valence (charge) of the ion moving across the channel. Slope equals R * T/ z * F where R is the universal gas constant, T is temperature in K, F is the Faraday constant, and z is the valence.

Chain of WT TREK-1 channels (Q920B6 whole entry): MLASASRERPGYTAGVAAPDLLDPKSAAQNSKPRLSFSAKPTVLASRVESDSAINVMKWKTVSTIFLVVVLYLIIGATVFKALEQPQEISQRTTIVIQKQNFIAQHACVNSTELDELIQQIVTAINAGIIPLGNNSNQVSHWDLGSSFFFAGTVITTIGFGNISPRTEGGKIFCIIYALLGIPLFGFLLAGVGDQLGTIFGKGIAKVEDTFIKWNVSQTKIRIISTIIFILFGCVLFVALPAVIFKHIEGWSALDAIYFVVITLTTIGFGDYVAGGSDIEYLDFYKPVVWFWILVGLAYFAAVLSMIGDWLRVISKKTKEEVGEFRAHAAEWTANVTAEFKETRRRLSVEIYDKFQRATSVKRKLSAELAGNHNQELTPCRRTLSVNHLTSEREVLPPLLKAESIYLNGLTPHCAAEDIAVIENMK

In the case of `NCCOB(c1ccccc1)c1ccccc1` [2-APB, 2-aminoethoxydiphenyl borate], the “Rb+-induced current” value (WT TREK-1 channels; 0.001 mM 2-APB) is reported as 2.62 nA, the “Rb+-induced current” value (WT TREK-1 channels; 0.01 mM 2-APB) is reported as 2.54 nA and the “Rb+-induced current” value (WT TREK-1 channels; 0.1 mM 2-APB) is reported as 1.29 nA. The “Rb+-induced current” value (WT TREK-1 channels; 0.5 mM 2-APB) was -0.03 nA, the “Rb+-induced current” value (WT TREK-1 channels; 1.0 mM 2-APB) was -0.44 nA and the “Rb+-induced current” value (WT TREK-1 channels; 2.0 mM 2-APB) was 0.00 nA. For the same compound, the EC50 [1] was 421 ± 34 µM, the “Fold activation 1 mM 2-APB” value ([1]; 1 mM, TALK-2 WT) was 26.51 fold and the Normalized currents ([1]; TALK-2 WT, 0.1 µM 2-APB) was 0.04. For the same compound, the Normalized currents ([1]; TALK-2 WT, 1 µM 2-APB) was 0.04, the Normalized currents ([1]; TALK-2 WT, 10 µM 2-APB) was 0.05 and the Normalized currents ([1]; TALK-2 WT, 100 µM 2-APB) was 0.19. For the same compound, the Normalized currents ([1]; TALK-2 WT, 500 µM 2-APB) was 0.58, the Normalized currents ([1]; TALK-2 WT, 1000 µM 2-APB) was 0.87 and the Normalized currents ([1]; TALK-2 WT, 2000 µM 2-APB) was 1.00. The “V1/2 shift (mV)” value (WT TALK-2 channels; 1 mM 2-APB, shift of G-V curve) was 26.9 mV, the Normalized current (WT TALK-2 channels; Voltage 0.000) was 0.204 and the Normalized current (WT TALK-2 channels; Voltage 0.005) was 0.227. The Normalized current (WT TALK-2 channels; Voltage 0.010) was 0.255, the Normalized current (WT TALK-2 channels; Voltage 0.015) was 0.290 and the Normalized current (WT TALK-2 channels; Voltage 0.020) was 0.331. The Normalized current (WT TALK-2 channels; Voltage 0.025) was 0.376, the Normalized current (WT TALK-2 channels; Voltage 0.030) was 0.427 and the Normalized current (WT TALK-2 channels; Voltage 0.035) was 0.474. It also gave a Normalized current (WT TALK-2 channels; Voltage 0.040) of 0.520, a Normalized current (WT TALK-2 channels; Voltage 0.045) of 0.565 and a Normalized current (WT TALK-2 channels; Voltage 0.050) of 0.611. The Normalized current (WT TALK-2 channels; Voltage 0.055) was 0.652, the Normalized current (WT TALK-2 channels; Voltage 0.060) was 0.689 and the Normalized current (WT TALK-2 channels; Voltage 0.065) was 0.723. It also gave a Normalized current (WT TALK-2 channels; Voltage 0.070) of 0.754, a Normalized current (WT TALK-2 channels; Voltage 0.075) of 0.784 and a Normalized current (WT TALK-2 channels; Voltage 0.080) of 0.809. The Normalized current (WT TALK-2 channels; Voltage 0.085) was 0.834, the Normalized current (WT TALK-2 channels; Voltage 0.090) was 0.854 and the Normalized current (WT TALK-2 channels; Voltage 0.095) was 0.872. It also gave a Normalized current (WT TALK-2 channels; Voltage 0.100) of 0.891, a Normalized current (WT TALK-2 channels; Voltage 0.105) of 0.905 and a Normalized current (WT TALK-2 channels; Voltage 0.110) of 0.919. For the same compound, the Normalized current (WT TALK-2 channels; Voltage 0.115) was 0.931, the Normalized current (WT TALK-2 channels; Voltage 0.120) was 0.943 and the Normalized current (WT TALK-2 channels; Voltage 0.125) was 0.952. For the same compound, the Normalized current (WT TALK-2 channels; Voltage 0.130) was 0.961, the Normalized current (WT TALK-2 channels; Voltage 0.135) was 0.972 and the Normalized current (WT TALK-2 channels; Voltage 0.140) was 0.971. The Normalized current (WT TALK-2 channels; Voltage 0.145) was 0.979, the Normalized current (WT TALK-2 channels; Voltage 0.150) was 0.985 and the Normalized current (WT TALK-2 channels; Voltage 0.155) was 0.989. The Normalized current (WT TALK-2 channels; Voltage 0.160) was 0.992, the Normalized current (WT TALK-2 channels; Voltage -0.005) was 0.187 and the Normalized current (WT TALK-2 channels; Voltage -0.010) was 0.175. The Normalized current (WT TALK-2 channels; Voltage -0.015) was 0.167, the Normalized current (WT TALK-2 channels; Voltage -0.020) was 0.158 and the Normalized current (WT TALK-2 channels; Voltage -0.025) was 0.153. For the same compound, the Normalized current (WT TALK-2 channels; Voltage -0.030) was 0.148, the Normalized current (WT TALK-2 channels; Voltage -0.035) was 0.143 and the Normalized current (WT TALK-2 channels; Voltage -0.040) was 0.140. The Normalized current (WT TALK-2 channels; Voltage -0.045) was 0.136, the Normalized current (WT TALK-2 channels; Voltage -0.050) was 0.131 and the Normalized current (WT TALK-2 channels; Voltage -0.055) was 0.128. The Normalized current (WT TALK-2 channels; Voltage -0.060) was 0.125, the Normalized current (WT TALK-2 channels; Voltage -0.065) was 0.121 and the Normalized current (WT TALK-2 channels; Voltage -0.070) was 0.118. The Normalized current (WT TALK-2 channels; Voltage -0.075) was 0.115, the Normalized current (WT TALK-2 channels; Voltage -0.080) was 0.114 and the Normalized current (WT TALK-2 channels; Voltage -0.085) was 0.112. For the same compound, the Normalized current (WT TALK-2 channels; Voltage -0.090) was 0.113, the Normalized current (WT TALK-2 channels; Voltage -0.095) was 0.112 and the Normalized current (WT TALK-2 channels; Voltage -0.100) was 0.112. The Normalized current (WT TALK-2 channels; Voltage -0.105) was 0.111, the Normalized current (WT TALK-2 channels; Voltage -0.110) was 0.110 and the Normalized current (WT TALK-2 channels; Voltage -0.115) was 0.110. For the same compound, the Normalized current (WT TALK-2 channels; Voltage -0.120) was 0.111 and the V1/2 (WT TALK-2 channels; TALK-2 WT, 1 mM ligand) was 44.7 mV.
